# Measurements from US12138251B2, “Fibrosis drug” (SCIENCE FARM LTD., priority 2019, dated 2024).
# Experiments:
# Human dermal fibroblasts = test: Immunoblot study of HPH-15 on TGF-β-treated human dermal fibroblasts; type: cell-based; details: after 2 ng/mL TGF-β for 24 hours, FIG. 3
# Description: Collagen was observed by immunoblot.
# [1] = test system: InMyoFib human colon myofibroblast cell line; test: Immunoblot study of HPH-15 on TGF-β1-stimulated InMyoFib cells; type: cell-based; details: InMyoFib cells stimulated with TGF-β1 (5 ng/ml) and HPH-15 for 24 hours
# Description: An InMyoFib human colon myofibroblast cell line, which reproduces an inflammatory bowel disease, was used. The culture condition was as follows: culture medium SmBM with 5% fetal bovine serum (FBS), antibiotics, and growth factors (insulin, hFGF-B, hEGF, FBS, and gentamicin/amphotericin-B). Cells at 10 to 17 passages were used.
# [2] = test system: bleomycin (BLM)-induced scleroderma mouse model
# Procedure: An eight-to-ten-week-old female C57BL/6 mouse was injected subcutaneously with 150 μl of bleomycin (dissolved in physiological saline at 1 mg/ml) or with 150 μl of physiological saline as a control on the shaved back once a day for 6 weeks on alternate days. […] For each group, the body weights of the mice before the start of the test and at the time of the tissue collection (6 weeks later) were measured and compared. A Student's t-test was used for statistics. Four mice are used for each group. […] Mouse skin tissue for HE staining was collected with a scalpel and a knife. The skin tissue was fixed with 4% paraformaldehyde, and HE-stained slides were prepared from the paraffin block. A representative stained image of each group was shown (FIG. 4b). • c. For the dermal thickness, the distance between the epidermis-dermis boundary and the subcutaneous fatty tissue was measured using HE staining. For statistics, a parametric multiple comparison test by the Tukey-Kramer method was performed. Four mice were used for each group. […] In order to compare the amounts of collagen in the skin tissues, the skins were collected using a 4 mm Derma punch centering on the bleomycin-injected site on the back skin of the mice. For the measurement of the amount of collagen, Sircol Soluble Collagen Assay Kit (#S1000, Funakoshi Co., Ltd.) was used. The amount (μg) of collagen in the skin tissue was graphed using four mice for each group. For statistics, the Tukey-Kramer method was used.
compound,measurement,setting,value
CC(C)(C)SCCNC(=S)c1cccc(C(=S)NCCSC(C)(C)C)n1 [HPH-15],expression of collagen,"Human dermal fibroblasts; 5 μM HPH-15, 48 hours",suppressed
same,expression of collagen,"Human dermal fibroblasts; 10 μM HPH-15, 48 hours",suppressed
same,amount of phosphorylated Smad (P-Smad),[1]; FIG. 1,reduced by the HPH-15 treatment in a dose-dependent manner
same,amount of collagen I,[1]; FIG. 2,reduced by the HPH-15 treatment in a dose-dependent manner
same,dermal thickness increased by bleomycin,"[2]; HPH-15 dose of 50 mg/kg/day or more, oral, 4 weeks, HE staining, FIGS. 4b, c",significantly reduced
same,systemic condition of the mice,"[2]; each dose 50, 100, 200, 300 mg/kg/day oral for 4 weeks, 6 weeks after the start of the test",kept well
same,body weight at skin collection compared with before the start of the test,"[2]; each dose 50, 100, 200, 300 mg/kg/day oral for 4 weeks, 6 weeks after the start of the test, FIG. 4a",no significant decrease in body weight
